Assay results taken from US20210162028A1, “Methods for Inducing Intermittent Fasting and Modulating Autophagy” (The Hong Kong Polytechnic University, priority 2019, published 2021).
Entries after “also recorded” stand apart in the source; their conditions may differ.

Experiments:
Assay type in all cases: in vivo, mouse
[1] = Daily food intake / 7-day intermittent fasting cycle in mice; details: DIO C57BL/6J male mice on HFD
Text: One of the most noticeable effects of intermittent fasting is reduction of bodyweight. […] Specifically, C57BL/6J, which is the most commonly used mouse strain for polygenic obesity model, was used in the study. It is well-reported that C57BL/6J male mice feeding on a high-fat diet will have prominent weight gain, become obese and develop hyperinsulinemia, hyperglycemia, impaired glucose tolerance and insulin resistance [Gallou-Kabani et al., 2007, Obesity 15(8):1996-2005]. Obesity was induced in C57BL/6J male mice via feeding ad libitum a high-fat diet containing 60 kcal % fat (HFD; Research Diets, D12492) for 12-14 weeks starting from 5-week old. These mice are referred as diet-induced obese (DIO) mice. DIO mice were stratified according to bodyweight into 2 groups. […] Both groups of mice continued to feed ad libitum on the HFD throughout the treatment period. One group of age-matched C57BL/6J male mice feeding ad libitum on an ordinary rodent chow diet (CD; LabDiet, 50IF/6F) and injected with vehicle served as the lean control [CD (vehicle) group]. Food intake and bodyweight of mice were measured daily. […] DIO mice were injected with rhArg on Day 0, which was Day 7 of the previous cycle. Similarly, Day 7 of the cycle shown in FIG. 1B was Day 0 of the next cycle. […] Bodyweight gain is one of the biomarkers related to aging.
C57BL/6J male mice were fed a high-fat diet from 5-week old for 12 weeks. They were then stratified into 3 groups according to their bodyweight and individually caged: (i) one group of mice received i.p. injection of 600 U N-ABD094-rhArg (SEQ ID NO: 50) once a week [HFD (rhArg) group] and was fed ad libitum the HFD for 5 weeks; (ii) one group of mice received i.p. injection of saline once a week, and was fed a predetermined amount of HFD on each day to artificially create a 7-day intermittent fasting cycle that mimics the pattern of food intake of mice administered once a week with rhArg [HFD (artificial IF) group)]; (iii) one group of mice was injected with saline once a week and was fed ad libitum the HFD [HFD (vehicle) group].

[2] = Bodyweight of treated mice; details: DIO C57BL/6J male mice on HFD
[3] = Insulin tolerance test (ITT); details: DIO C57BL/6J male mice on HFD, after 6 weeks
Text: In terms of reversing insulin resistance on pre-existing obese mice, insulin tolerance test (ITT) was employed (FIG. 59).
In terms of reversing insulin resistance on pre-existing obese mice, insulin tolerance test (ITT) was employed (FIG. 68A).

[4] = Glucose tolerance test (GTT); details: DIO C57BL/6J male mice on HFD, after 7 weeks
hepatocyte = assay: Transmission electron microscopy of liver (hepatocytes); details: DIO C57BL/6J male mice on HFD, 3 weeks, Day 3
Text: FIG. 47 illustrates the liver examined by transmission electron microscopy at Day 1, Day 3, Day 5 and Day 7 of the 7-day intermittent after N-ABD094-rhArg injection.
The presence of autophagosome in liver after treatment for 3 weeks were examined by TEM (FIGS. 62, 63 and 64).
The presence of autophagosome in liver after treatment for 3 weeks were examined by transmission electron microscopy (FIGS. 71 and 72).

[5] = Hepatic steatosis (oil Red O / H&E staining, liver triglyceride); details: DIO C57BL/6J male mice on HFD, 11 weeks after treatment
[6] = Fat pad and organ mass at end of treatment; details: DIO C57BL/6J male mice on HFD
[7] = rhArg once a week alone or 0.33 mg RA daily alone
[8] = rhArg weekly and/or 0.33 mg/day RA
[9] = rhArg weekly and/or 0.33 mg RA daily
[10] = 300 U/week rhArg and/or 300 mg/kg metformin
[11] = 300 U rhArg once a week and/or 300 mg/kg metformin daily

CC1=C(/C=C/C(C)=C/C=C/C(C)=C/C(=O)O)C(C)(C)CCC1 [RA, all-trans retinoic acid, reference compound]
Pattern of food intake (intermittent fasting cycle) ([1]; 200 U rhArg i.p. once a week and/or 0.33 mg RA daily): stable
Total food intake per week, less than HFD (vehicle) group ([1]; 200 U rhArg i.p. once a week and/or 0.33 mg RA daily by gastric feeding, 10 weeks): slight, but insignificant decrease
Change in bodyweight under single treatment [2, 7]: could only prevent further gain in bodyweight, but did not result in weight loss; also recorded: stable body weight without further increase
Insulin sensitivity in ITT [3, 8]: marginal effect on improving insulin sensitivity but not reach statistical significant
Glucose tolerance in GTT [4, 8]: cannot relieve glucose intolerance
TEM of liver: autophagosomes (hepatocyte; [9]): autophagosome was rarely seen; also recorded: no autophagosome is observed
TEM of liver: lipid droplets (hepatocyte; [9]): significant decrease in lipid droplet size
Lipid in liver (H&E staining) ([5]; rhArg and/or RA): significant effect on diminishing lipid in liver
Mass of organs including liver, pancreas and BAT [6, 7]: can already reduce the mass of most organs
Visceral and subcutaneous fat mass ([6]; rhArg once a week and/or 0.33 mg RA daily): did not reduce body fat

CN(C)C(=N)N=C(N)N [metformin, reference compound]
Pattern of food intake (intermittent fasting cycle) ([1]; 300 U rhArg i.p. once a week and/or 300 mg/kg metformin daily): stable
Total food intake per week, less than HFD (vehicle) group ([1]; 300 U rhArg i.p. once a week and/or 300 mg/kg metformin daily by gastric feeding, 9 weeks): 13%
Change in bodyweight under single treatment ([2]; 300 U rhArg once a week alone or 300 mg/kg metformin daily alone): stable body weight without further increase in body mass
Change in bodyweight under single treatment ([2]; 300 U rhArg once a week alone or 300 mg/kg metformin daily alone, listed as Met): could only prevent further gain in bodyweight, but did not result in weight loss
Insulin sensitivity in ITT [3, 10]: cannot relieve insulin resistant
Glucose tolerance in GTT [4, 10]: cannot relieve glucose intolerance
TEM of liver: autophagosomes (hepatocyte; [10]): no autophagosome is observed; also recorded: autophagosome was rarely seen
TEM of liver: lipid droplets (hepatocyte; [10]): significant decrease in lipid droplet size
Lipid in liver (H&E staining) ([5]; rhArg and/or metformin): slight effect of diminishing lipid in liver
Mass of organs including liver, kidney and BAT [6, 11]: cannot reduce the mass of most organs
Visceral and subcutaneous fat mass [6, 11]: did not reduce body fat
